Data taken from patent US20260137707A1, “METHODS OF MODULATING ATXN2 EXPRESSION” (University of Utah Research Foundation, priority 2022, published 2026).
Structures can show the parent of a compound that is named as a salt. Where two headings read alike, the source gives them in different places.

Experiments:
ATXN2-luc [1] = assay: cells; details: for activity at 1 µM: read-out: Luc at 1 μm; for activity at 10 µM: read-out: Luc at 10 μm
ATXN2-luc [2] = details: H2 cells
[3] = Table 1, 24 hrs, single 10 μM dose, Z-score of luciferase

Compound | activity at 10 µM (ATXN2-luc [1]) | SD from Mean (ATXN2-luc [2]; [3]) | further results
COc1ccc(CCCOC(Cn2ccnc2)c2ccc(OC)cc2)cc1 (centres unmarked) [SKF-96365] | 57% | −2.721 SD | activity at 1 µM (ATXN2-luc [1]): 104%; SD from Mean (ATXN2-luc [2]; Table 5S, pilot screen, 10 μM): −2.721 SD
CC(=O)Oc1cccc(O)c1 [RESORCINOL MONOACETATE] | 5% | −6.242 SD | activity at 1 µM (ATXN2-luc [1]): 120%; SD from Mean (ATXN2-luc [2]; Table 5S, pilot screen, 10 μM): −6.242 SD
COc1cc(/C=C/C(=O)N2CCC=CC2=O)cc(OC)c1OC [Piperlongumine] | – | −2.973 SD | –
COc1ccc(C[C@H](N)C(=O)N[C@H]2[C@@H](O)[C@H](n3cnc4c(N(C)C)ncnc43)O[C@@H]2CO)cc1 [PUROMYCIN HYDROCHLORIDE] | – | – | SD from Mean (ATXN2-luc [2]; Table 1, 24 hrs, single 10 μM dose, Z-score of luciferase, HYDROCHLORIDE): −3.716 SD
CO[C@H]1[C@H](O)[C@H](O[C@H]2CC[C@@]3(C=O)[C@H](CC[C@@H]4[C@@H]3CC[C@]3(C)[C@@H](C5=CC(=O)OC5)CC[C@]43O)C2)O[C@@H](C)[C@@H]1O [PERUVOSIDE] | 12% | −4.038 SD | activity at 1 µM (ATXN2-luc [1]): 15%; SD from Mean (ATXN2-luc [2]; Table 5S, pilot screen, 10 μM): −4.038 SD
CO[C@H]1C=C[C@@]23c4cc5c(cc4CN(C[C@@H]2O)[C@H]3C1)OCO5 [CRINAMINE] | – | −3.651 SD | –
CC[C@@]1(O)C[C@H](O)c2c(cc3c(c2O)C(=O)c2c(O)ccc(O)c2C3=O)[C@H]1C(=O)OC [RUTILANTINONE] | – | −2.722 SD | –
C[C@]12CC[C@H](O)C[C@H]1CC[C@@H]1[C@@H]2[C@H](O)C[C@]2(C)[C@@H](C3=CC(=O)OC3)CC[C@]12O [SARMENTOGENIN] | 24% | −3.539 SD | activity at 1 µM (ATXN2-luc [1]): 53%
THIMEROSAL | – | −5.645 SD | –
CCCCCCc1ccc(O)cc1O.Nc1c2ccccc2nc2ccccc12 [ACRISORCIN] | – | −3.600 SD | –
CC(N/C(=N\C#N)Nc1ccncc1)C(C)(C)C (centres unmarked) | 17% | −4.875 SD | SD from Mean (ATXN2-luc [2]; Table 5S, pilot screen, 10 μM): −4.875 SD
Nc1ccn([C@@H]2O[C@H](CO)[C@@H](O)[C@@H]2O)c(=O)n1 [CYTARABINE] | – | −3.681 SD | –
CC(C)/N=c1\cc2n(-c3ccc(Cl)cc3)c3ccccc3nc-2cc1Nc1ccc(Cl)cc1 [CLOFAZIMINE] | – | −2.792 SD | –
Cl.Cl.O=C1c2c(O)ccc(O)c2C(=O)c2c(NCCNCCO)ccc(NCCNCCO)c21 [MITOXANTHRONE HYDROCHLORIDE] | – | −4.333 SD | –
O=c1[nH]c(=O)n([C@H]2C[C@H](O)[C@@H](CO)O2)cc1C(F)(F)F [Trifluridine] | 71% | −5.158 SD | SD from Mean (ATXN2-luc [2]; Table 5S, pilot screen, 10 μM): −5.158 SD
Nc1c2ccccc2nc2ccccc12 [AMINACRINE] | – | −4.103 SD | –
Lycorine hydrochloride | – | −2.968 SD | –
COc1ccc(C[C@H]2NC[C@H](O)[C@H]2OC(C)=O)cc1 [Anisomycin] | – | −4.015 SD | –
CNC1CC(c2ccc(Cl)c(Cl)c2)c2ccccc21 (centres unmarked) [Indatraline] | 6% | – | –
O=C1C=CC(=O)c2ccccc21 [4-NAPHTHOQUINONE] | – | −3.613 SD | –
C[C@]12CC[C@H](O)C[C@H]1CC[C@@H]1[C@@H]2C[C@@H](O)[C@]2(C)[C@@H](C3=CC(=O)OC3)CC[C@]12O [Digoxigenin] | 22% | −3.264 SD | activity at 1 µM (ATXN2-luc [1]): 90%; SD from Mean (ATXN2-luc [2]; Table 5S, pilot screen, 10 μM): −3.264 SD
N=c1ccn2c(n1)O[C@H]1[C@H](O)[C@@H](CO)O[C@H]12 [ANCITABINE HYDROCHLORIDE] | – | −3.031 SD | –
C[C@@H]1O[C@@H](O[C@H]2CC[C@]3(C=O)[C@H]4CC[C@]5(C)[C@@H](C6=CC(=O)OC6)CC[C@]5(O)[C@@H]4CC[C@]3(O)C2)[C@H](O)[C@H](O)[C@H]1O [CONVALLATOXIN] | 11% | −3.689 SD | activity at 1 µM (ATXN2-luc [1]): 12%; SD from Mean (ATXN2-luc [2]; Table 5S, pilot screen, 10 μM): −3.689 SD
[H]/N=C(/NCCCCC)N/N=C/c1c[nH]c2ccc(OC)cc12 [TEGASEROD MALEATE] | 8% | −3.606 SD | –
CC(C)[N+](C)(CCC(C(N)=O)(c1ccccc1)c1ccccc1)C(C)C [ISOPROPAMIDE IODIDE] | – | −4.073 SD | –
COc1cccc(C2(O)CCCCC2CN(C)C)c1 (centres unmarked) [Tramadol] | 134% | −3.415 SD | –

Compound | activity at 10 µM (ATXN2-luc [1]) | SD from Mean (ATXN2-luc [2]; [3]) | further results
CC1=CC(=O)c2ccccc2C1=O [Menadione] | 35% | −3.434 SD | –
C[C@H]1O[C@@H](O[C@H]2[C@@H](O)C[C@H](O[C@H]3[C@@H](O)C[C@H](O[C@H]4CC[C@@]5(C)[C@H](CC[C@@H]6[C@@H]5CC[C@]5(C)[C@@H](C7=CC(=O)OC7)[C@@H](O)C[C@]65O)C4)O[C@@H]3C)O[C@@H]2C)C[C@H](O)[C@@H]1O [GITOXIN] | 12% | −4.086 SD | activity at 1 µM (ATXN2-luc [1]): 21%; SD from Mean (ATXN2-luc [2]; Table 5S, pilot screen, 10 μM): −4.086 SD
CO[C@H]1C[C@H](O[C@H]2CC[C@]3(C)[C@H]4CC[C@]5(C)[C@@H](C6=CC(=O)OC6)CC[C@]5(O)[C@@H]4CC[C@]3(O)C2)O[C@H](C)[C@H]1O [PERIPLOCYMARIN] | 17% | −2.759 SD | activity at 1 µM (ATXN2-luc [1]): 75%
CC(=O)O[C@H]1CC[C@@]2(C)[C@H](CC[C@@H]3[C@@H]2CC[C@]2(C)[C@@H](C4=CC(=O)OC4)[C@@H](OC(C)=O)C[C@]32O)C1 [GITOXIGENIN DIACETATE] | 21% | −4.261 SD | activity at 1 µM (ATXN2-luc [1]): 27%; SD from Mean (ATXN2-luc [2]; Table 5S, pilot screen, 10 μM): −4.261 SD
CO[C@H]1C[C@H](O[C@H]2CC[C@]3(C=O)[C@H]4CC[C@]5(C)[C@@H](C6=CC(=O)OC6)CC[C@]5(O)[C@@H]4CC[C@]3(O)C2)O[C@H](C)[C@H]1O [CYMARIN] | 16% | −4.099 SD | activity at 1 µM (ATXN2-luc [1]): 14%; SD from Mean (ATXN2-luc [2]; Table 5S, pilot screen, 10 μM): −4.099 SD
C[C@@H]1O[C@@H](O[C@H]2C[C@@H](O)[C@]3(CO)[C@@H]4[C@@H](O)C[C@]5(C)[C@H](C6=CC(=O)OC6)CC[C@@]5(O)[C@H]4CC[C@]3(O)C2)[C@H](O)[C@H](O)[C@@H]1O [Strophantine octahydrate] | – | −3.624 SD | –
COC(=O)[C@]1(C)CC[C@]2(C)CC[C@]3(C)C4=CC=C5C(=CC(=O)C(O)=C5C)[C@]4(C)CC[C@@]3(C)[C@@H]2C1 [PRISTIMERIN] | – | −3.883 SD | –
CN1CCN(CCCN2c3ccccc3Sc3ccc(C(F)(F)F)cc32)CC1 [TRIFLUOPERAZINE HYDROCHLORIDE] | 2% | −5.856 SD | SD from Mean (ATXN2-luc [2]; Table 5S, pilot screen, 10 μM): −5.856 SD
CCN(CC)CCCC(C)Nc1c2ccc(Cl)cc2nc2ccc(OC)cc12 (centres unmarked) [Quinacrine dihydrochloride dihydrate] | – | −3.270 SD | –
CC(=O)O[C@@H]1C[C@@]2(C)[C@H](c3ccoc3)C[C@H]3O[C@]32[C@]2(C)C(=O)C(O)=C3C(C)(C)C(=O)C=C[C@]3(C)[C@@H]12 [ANTHOTHECOL] | – | −3.020 SD | –
C[n+]1c2cc(N)ccc2cc2ccc(N)cc21.[Cl-] [ACRIFLA VINIUM HYDROCHLORIDE, ACRIFLAVINIUM HYDROCHLORIDE] | – | −4.148 SD | –
CC[C@@]1(O)C(=O)OCc2c1cc1n(c2=O)Cc2cc3ccccc3nc2-1 [Camptothecine (S+)] | – | −5.283 SD | –
COc1ccc(C[C@H](N)C(=O)N[C@H]2[C@@H](O)[C@H](n3cnc4c(N(C)C)ncnc43)O[C@@H]2CO)cc1 [Puromycin dihydrochloride] | – | – | SD from Mean (ATXN2-luc [2]; Table 1, 24 hrs, single 10 μM dose, Z-score of luciferase, dihydrochloride): −4.723 SD
CC(=O)[C@]1(O)Cc2c(O)c3c(c(O)c2[C@@H](O[C@H]2C[C@H](N)[C@H](O)[C@H](C)O2)C1)C(=O)c1ccccc1C3=O [IDARUBICIN] | – | −2.719 SD | –
CC(C)=CCC[C@]1(C)C=Cc2c(O)c3c(c(CC=C(C)C)c2O1)O[C@]12C(=C[C@@H]4C[C@H]1C(C)(C)O[C@@]2(C/C=C(/C)C(=O)O)C4=O)C3=O [GAMBOGIC ACID] | – | −4.841 SD | –
N=C1C=CC(=C(c2ccc(N)cc2)c2ccc(N)cc2)C=C1 [PARAROSANILINE PAMOATE] | – | −2.740 SD | –
O=C1C=C2C(=CCOC2O)O1 (centres unmarked) [PATULIN] | – | −3.651 SD | –
COC(=O)C[C@](O)(CCCC(C)(C)O)C(=O)O[C@@H]1C(OC)=C[C@]23CCCN2CCc2cc4c(cc2[C@H]13)OCO4 [HOMOHARRINGTONINE] | – | −3.117 SD | –
CC[C@@]1(O)C[C@H](O[C@H]2C[C@H](N(C)C)[C@H](O)[C@H](C)O2)c2c(cc3c(c2O)C(=O)c2c(O)cccc2C3=O)[C@H]1C(=O)OC [AKLAVINE HYDROCHLORIDE] | – | −3.741 SD | –
C[C@H]1CC[C@]2(NC1)O[C@H]1C[C@H]3[C@@H]4CC[C@H]5C[C@@H](O[C@@H]6O[C@H](CO)[C@H](O[C@@H]7O[C@H](CO)[C@@H](O)[C@H](O[C@@H]8OC[C@@H](O)[C@H](O)[C@H]8O)[C@H]7O[C@@H]7O[C@H](CO)[C@@H](O)[C@H](O)[C@H]7O)[C@H](O)[C@H]6O)CC[C@]5(C)[C@H]4CC[C@]3(C)[C@H]1[C@@H]2C [TOMATINE] | – | −4.999 SD | –
O=C1c2c(O)ccc(O)c2C(=O)c2c(NCCNCCO)ccc(NCCNCCO)c21 [Mitoxantrone dihydrochloride] | – | −3.666 SD | –
COc1cc([C@@H]2c3cc4c(cc3[C@@H](O[C@@H]3O[C@@H]5CO[C@@H](c6cccs6)O[C@H]5[C@H](O)[C@H]3O)[C@H]3COC(=O)[C@H]23)OCO4)cc(OC)c1O [TENIPOSIDE] | – | −2.832 SD | –
COc1cccc2c1C(=O)c1c(O)c3c(c(O)c1C2=O)C[C@@](O)(C(C)=O)C[C@@H]3O[C@H]1C[C@H](N)[C@H](O)[C@H](C)O1 [Daunorubicin hydrochloride] | – | −4.155 SD | –
CC(=O)[C@]1(O)Cc2c(O)c3c(c(O)c2[C@@H](O[C@H]2C[C@H](N)[C@H](O)[C@H](C)O2)C1)C(=O)c1ccccc1C3=O [IDARUBICIN HCl] | – | – | SD from Mean (ATXN2-luc [2]; Table 1, 24 hrs, single 10 μM dose, Z-score of luciferase, HCl): −2.944 SD
Cc1c2ccncc2c(C)c2c1[nH]c1ccccc12 [Ellipticine] | – | −3.485 SD | –
O=C(Nc1ccc([N+](=O)[O-])cc1Cl)c1cc(Cl)ccc1O [Niclosamide] | – | −4.393 SD | –
